Test results as given in US20230111656A1, “METHODS OF CONTROLLING OR PREVENTING INFESTATION OF SOYBEAN PLANTS BY THE PHYTOPATHOGENIC MICROORGANISM CORYNESPORA CASSIICOLA” (SYNGENTA CROP PROTECTION AG, priority 2020, published 2023).

Tested on: Corynespora cassiicola
Test: Liquid culture growth inhibition of Corynespora cassiicola (PDB, 96-well microtiter plate, photometric)
Assay type: cell-based
Conditions: 24 C, 3-4 days, photometric at 620 nm, compared to untreated control
Method: Conidia of the fungus from cryogenic storage were directly mixed into nutrient broth (PDB potato dextrose broth). A DMSO solution of the test compounds was placed into a microtiter plate (96-well format) and the nutrient broth containing the fungal spores was added to it. The test plates were incubated at 24 C and the inhibition of growth (% control of Corynespora cassiicola) was determined photometrically after 3-4 days at 620 nm. The activity of a compound is derived by comparing the inhibition of growth in the treated test solution to the growth in the untreated check. The concentration of the compounds was 0.74, 0.25, and 0.082 ppm.

## CC1(C)N=C(c2cnc3ccccc3c2)c2ccccc2C1(F)F
0.082 ppm
  control of Corynespora cassiicola (inhibition of growth): at least 20%
0.25 ppm
  control of Corynespora cassiicola (inhibition of growth): at least 50%
0.74 ppm
  control of Corynespora cassiicola (inhibition of growth): at least 70%
